Experimental data taken from PubChem BioAssay (NCI).
Values joined by “and” are separate entries in the source; they are usually repeats but may differ in a detail not shown here. Identical values can stand only once.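 1) Cells in 96-well plates. 2) Compound, 48 h, 5 concentrations. 3) Linear interpolation between surrounding doses. 4) Unreached endpoint = highest concentration. GI50 is the concentration that inhibits growth by half. The concentration for full growth arrest is given as TGI.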

Experiments:
Assay in all cases: NCI tumour cell line growth inhibition, 48 h
[1] = tested on: A549 NSCLC
[2] = tested on: CAKI-1 renal
[3] = tested on: HCT-15 colon
[4] = tested on: MALME-3M melanoma
[5] = tested on: NCI-H226 lung
[6] = tested on: NCI-H460 lung
[7] = tested on: SF-268 CNS
[8] = tested on: SF-295 CNS
[9] = tested on: 786-0 renal
[10] = tested on: BT-549 breast
[11] = tested on: MDA-MB-435

| Compound | TGI [1] | TGI [2] [µM] | TGI [3] [µM] | TGI [4] | TGI [5] | TGI [6] [µM] | TGI [7] [µM] | TGI [8] | TGI [9] | TGI [10] | TGI [11] | GI50 [1] [nM] | GI50 [10] [nM] | GI50 [2] [nM] | GI50 [3] [nM] | GI50 [4] [nM] | GI50 [5] [µM] | GI50 [6] [nM] | GI50 [8] [nM] |
| --- | --- | --- | --- | --- | --- | --- | --- | --- | --- | --- | --- | --- | --- | --- | --- | --- | --- | --- | --- |
| CC(=O)/C=C/c1c[nH]c(=O)[nH]c1=O | 1090 µM | 178 | 523 | 444 µM | 565 µM | 613 | 720 | 751 µM | – | – | – | – | – | – | – | – | – | – | – |
| OCCCN(CCc1ccc(Cl)c(Cl)c1)CCN1CCCC1 | > 100 µM | > 100 | > 100 | 41.5 µM | – | > 100 | > 100 | > 100 µM | 60.4 µM | > 100 µM | 53.4 µM | – | – | – | – | – | – | – | – |
| CC1=CC[C@H](C)C(C)(C)C1/C=C/C(C)=C/CC[C@@]1(CO)[C@H](CCCO)/C(=C(/C)C=O)CC[C@]1(C)O (some centres undefined) | 6.21 µM | 10.5 | 20.4 | 16.9 µM | 14.4 µM | 13.5 | 25.1 | 13.9 µM | – | – | – | – | – | – | – | – | – | – | – |
| CCOC(=O)NNC1(SC)NC(=O)c2c(cc(Cl)oc2=O)O1 (centres undefined) | 21.1 µM | 8.02 | 5.28 | – | 43.8 µM | 23.7 | 10.7 | 25.9 µM | 4.84 µM | 12.2 µM | 17.6 µM | – | – | – | – | – | – | – | – |
| Cc1ccc(NNc2cc(=O)[nH]c(=O)[nH]2)cc1Cl | > 100 µM | 28.4 | 22.7 | 31.9 µM | > 100 µM | > 100 | > 100 | > 100 µM | 28 µM | > 100 µM | – | – | – | – | – | – | – | – | – |
| C=CCC1(O)c2cccc(O)c2C(=O)c2cccc(O)c21 (centres undefined) | 88.1 µM | 68.2 | 51.8 | – | 74.3 µM | 48 | 85.4 | 38.3 µM | 46.1 µM | 47.4 µM | 50.8 µM | – | – | – | – | – | – | – | – |
| CC1(C)N=C(N)N=C(N)N1c1ccc(CCCCc2ccc(Cl)cc2Cl)cc1 | 14.7 µM | 9.08 | > 100 | 16.8 µM | – | 2.48 | 15.9 | 22 µM | 15.3 µM | 6.3 µM | 13.9 µM | – | – | – | – | – | – | – | – |
| COc1ccccc1/C=C1/Sc2scc(CC(=O)Nc3ccccc3)[n+]2C1=O | > 100 µM | > 100 | > 100 | – | 69.7 µM | > 100 | > 100 | > 100 µM | > 100 µM | 93.2 µM | > 100 µM | – | – | – | – | – | – | – | – |
| CSc1nc(-c2cc3c(c(SC)n2)CCC3)cc2c1CCC2 | > 100 µM | > 100 | > 100 | – | > 100 µM | > 100 | > 100 | > 100 µM | > 100 µM | > 100 µM | > 100 µM | – | – | – | – | – | – | – | – |
| Cc1ccnc2c1c(=O)c1ccccc1n2C | – | 51.4 | > 100 | > 100 µM | > 100 µM | 44.9 | > 100 | > 100 µM | > 100 µM | 81.9 µM | > 100 µM | – | – | – | – | – | – | – | – |
| CCCC(=O)N[C@@H](Cc1cc(I)c(O)c(I)c1)C(=O)NCCCNCCCCNCCCNC(=O)[C@@H](N)CCCN=C(N)N | > 100 µM | – | > 100 | > 100 µM | > 100 µM | > 100 | – | – | > 100 µM | – | – | – | – | – | – | – | – | – | – |
| COc1cccc(NC(=O)N/C(=C/c2ccc(N(CCC#N)CCC#N)cc2)NC(=O)c2cc([N+](=O)[O-])ccc2Cl)c1 | > 100 µM | > 100 | > 100 | – | > 100 µM | – | > 100 | > 100 µM | – | – | – | – | – | – | – | – | – | – | – |
| O=C(/C=C/c1ccc(Cl)c(Cl)c1)CCN1CCN(CCC(=O)/C=C/c2ccc(Cl)c(Cl)c2)CC1 | > 100 µM | 31.8 | 34.1 | – | 72.8 µM | 38.5 | > 100 | 46.5 µM | 21 µM | 59.8 µM | 55.1 µM | – | – | – | – | – | – | – | – |
| C/C(=C1/N=C(c2cc([N+](=O)[O-])ccc2Cl)N(C2=CC=C(Cl)CC2)C1=O)c1cc2ccccc2oc1=O | > 100 µM | > 100 | – | > 100 µM | > 100 µM | > 100 | > 100 | > 100 µM | – | – | – | – | – | – | – | – | – | – | – |
| CSc1cc(Cl)c(C)cc1S(=O)(=O)NC(=O)NNc1ccccn1 | > 100 µM | > 100 | > 100 | > 100 µM | > 100 µM | > 100 | > 100 | > 100 µM | > 100 µM | – | > 100 µM | – | – | – | – | – | – | – | – |
| COc1cc2cnc3c(c2cc1OC)Cc1cc2c(cc1-3)OCO2 | > 54.5 µM | > 74.7 | > 100 | 74.9 µM | > 95.8 µM | 0.034 | 31.3 | > 37.6 µM | > 51.9 µM | 50.2 µM | – | < 15.3 | 391 | < 10 | < 10 | < 10 | 41.1 | < 10 | < 10 |
| CCCN(CCC)C(=O)Cc1c2n(c3ccccc13)Cc1ccccc1-2 | > 100 µM | > 100 | > 100 | > 100 µM | > 100 µM | > 100 | > 100 | > 100 µM | > 100 µM | – | – | – | – | – | – | – | – | – | – |
| O=[N+]([O-])c1cccc2nc3ccccc3c(NCCNCCO)c12 | 0.145 µM and 0.144 µM | 0.088 | > 100 | 0.0216 µM and 0.0317 µM | 0.0495 µM and 0.0261 µM | 0.108 | – | 0.0367 µM and 0.133 µM | 0.0259 µM and 0.121 µM | 0.0273 µM and 0.0259 µM | 0.0278 µM and 0.014 µM | – | – | – | – | – | – | – | – |
| CCOC(=O)c1c(NC(=O)c2ccccc2)sc2c1CCC2 | > 100 µM | > 100 | > 100 | – | > 100 µM | > 100 | > 100 | > 100 µM | > 100 µM | > 100 µM | – | – | – | – | – | – | – | – | – |
| Cc1cc(S(N)(=O)=O)c(S/C(=N\Nc2ccc([N+](=O)[O-])cc2)c2ccc(Cl)cc2)cc1Cl | 7.48 µM | 14.9 | 77.9 | 4.31 µM | 6.57 µM | 5.3 | 6.58 | 5.46 µM | – | 35.4 µM | 6.88 µM | – | – | – | – | – | – | – | – |
| CCOC(=O)/C=C/[C@H](O[Si](c1ccccc1)(c1ccccc1)c1ccccc1)C(C)(C)C | > 31.6 µM | > 31.6 | > 31.6 | > 31.6 µM | > 31.6 µM | – | > 31.6 | > 31.6 µM | > 31.6 µM | – | > 31.6 µM | – | – | – | – | – | – | – | – |
| C/C=C/OC1C(C2COC(C)(C)O2)OC2OC(C)(C)OC21 (centres undefined) | > 100 µM | > 100 | > 100 | > 100 µM | – | > 100 | > 100 | > 100 µM | > 100 µM | – | > 100 µM | – | – | – | – | – | – | – | – |
